Data as given in ChEMBL document CHEMBL1759967, “Structure-based design and biological profile of (E)-N-(4-Nitrobenzylidene)-2-naphthohydrazide, a novel small molecule inhibitor of IκB kinase-β” (Eur J Med Chem, 2011).
Active and inactive are the calls of the source. The calls are words filed in the database; no cut-off is given here.

Experiments:
[1] = biological target: Serine/threonine-protein kinase Chk2 (Homo sapiens) (UniProt O96017); experiment: Inhibition of human CHK2 kinase expressed in insect Sf21 cells using phospho-CREBtide as substrate at 30 uM
[2] = biological target: T1, Inhibitor of nuclear factor kappa-B kinase subunit beta (Homo sapiens) (UniProt O14920); conditions: Sf21, 30 uM
T1 sequence (whole entry): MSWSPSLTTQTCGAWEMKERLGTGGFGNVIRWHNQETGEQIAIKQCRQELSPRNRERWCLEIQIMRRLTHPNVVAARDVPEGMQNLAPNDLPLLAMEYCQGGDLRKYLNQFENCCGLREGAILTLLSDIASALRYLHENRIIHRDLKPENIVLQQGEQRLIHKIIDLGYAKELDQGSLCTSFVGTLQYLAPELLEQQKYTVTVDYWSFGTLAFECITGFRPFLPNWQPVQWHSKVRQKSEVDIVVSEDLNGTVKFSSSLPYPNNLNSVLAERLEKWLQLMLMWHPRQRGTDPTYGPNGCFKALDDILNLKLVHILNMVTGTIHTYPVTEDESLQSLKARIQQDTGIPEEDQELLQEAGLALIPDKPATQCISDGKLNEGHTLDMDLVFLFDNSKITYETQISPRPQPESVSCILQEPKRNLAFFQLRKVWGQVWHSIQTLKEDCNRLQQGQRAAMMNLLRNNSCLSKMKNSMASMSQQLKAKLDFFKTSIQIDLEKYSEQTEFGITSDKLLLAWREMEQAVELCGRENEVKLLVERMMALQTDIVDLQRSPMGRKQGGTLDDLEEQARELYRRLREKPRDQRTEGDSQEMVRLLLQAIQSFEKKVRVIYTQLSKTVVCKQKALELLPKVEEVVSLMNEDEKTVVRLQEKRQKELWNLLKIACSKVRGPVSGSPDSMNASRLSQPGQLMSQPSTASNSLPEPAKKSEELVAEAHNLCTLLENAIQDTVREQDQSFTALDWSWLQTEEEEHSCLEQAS
Description: Inhibition of human recombinant IKK-beta expressed in insect Sf21 cells using phospho-Ulight-IkappaB-alpha as substrate at 30 uM

[3] = biological target: T2, Inhibitor of nuclear factor kappa-B kinase subunit alpha (Homo sapiens) (UniProt O15111); conditions: Sf21, 30 uM
T2 sequence (whole entry): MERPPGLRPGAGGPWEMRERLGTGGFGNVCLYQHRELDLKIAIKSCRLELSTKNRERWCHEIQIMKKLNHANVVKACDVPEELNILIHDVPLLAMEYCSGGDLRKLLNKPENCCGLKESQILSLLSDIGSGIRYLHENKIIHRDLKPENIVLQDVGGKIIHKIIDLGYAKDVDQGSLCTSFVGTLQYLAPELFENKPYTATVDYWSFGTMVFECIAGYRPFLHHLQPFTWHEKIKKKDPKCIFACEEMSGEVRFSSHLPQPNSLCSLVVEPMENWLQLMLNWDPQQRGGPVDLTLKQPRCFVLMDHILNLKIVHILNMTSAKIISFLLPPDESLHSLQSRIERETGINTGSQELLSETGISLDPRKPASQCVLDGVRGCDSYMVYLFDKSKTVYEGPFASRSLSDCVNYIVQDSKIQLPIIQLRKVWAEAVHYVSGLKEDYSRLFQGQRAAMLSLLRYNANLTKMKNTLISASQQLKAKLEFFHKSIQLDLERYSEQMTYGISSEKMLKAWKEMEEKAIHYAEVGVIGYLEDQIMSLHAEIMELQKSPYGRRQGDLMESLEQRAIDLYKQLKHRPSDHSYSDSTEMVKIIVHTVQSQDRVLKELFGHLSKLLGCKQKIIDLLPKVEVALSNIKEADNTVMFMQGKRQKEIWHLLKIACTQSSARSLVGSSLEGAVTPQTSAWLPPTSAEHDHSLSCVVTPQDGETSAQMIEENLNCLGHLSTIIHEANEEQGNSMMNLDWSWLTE
Description: Inhibition of human recombinant IKK-alpha expressed in insect Sf21 cells using phospho-Ulight-IkappaB-alpha as substrate at 30 uM

Mus musculus [4] = organism: Mus musculus; conditions: Swiss, Ear, at 10 µmol/kg
[5] = biological target: T3, Inhibitor of nuclear factor kappa-B kinase subunit beta (Homo sapiens, UniProt O14920); experiment: Inhibition of human recombinant IKK-beta expressed in insect Sf21 cells using phospho-Ulight-IkappaB-alpha as substrate
T3 sequence (O14920 whole entry): T1 sequence (whole entry)

Mus musculus [6] = experiment: Antiinflammatory activity in Swiss mouse assessed as inhibition of arachidonic acid-induced ear edema at 10 to 100 umol/kg, ip administered 60 mins before arachidonic acid challenge measured after 1 to 6 hrs by electronic digital caliper; format: functional, organism-based

Serine/threonine-protein kinase Chk2 (Homo sapiens), sequence (O96017 whole entry): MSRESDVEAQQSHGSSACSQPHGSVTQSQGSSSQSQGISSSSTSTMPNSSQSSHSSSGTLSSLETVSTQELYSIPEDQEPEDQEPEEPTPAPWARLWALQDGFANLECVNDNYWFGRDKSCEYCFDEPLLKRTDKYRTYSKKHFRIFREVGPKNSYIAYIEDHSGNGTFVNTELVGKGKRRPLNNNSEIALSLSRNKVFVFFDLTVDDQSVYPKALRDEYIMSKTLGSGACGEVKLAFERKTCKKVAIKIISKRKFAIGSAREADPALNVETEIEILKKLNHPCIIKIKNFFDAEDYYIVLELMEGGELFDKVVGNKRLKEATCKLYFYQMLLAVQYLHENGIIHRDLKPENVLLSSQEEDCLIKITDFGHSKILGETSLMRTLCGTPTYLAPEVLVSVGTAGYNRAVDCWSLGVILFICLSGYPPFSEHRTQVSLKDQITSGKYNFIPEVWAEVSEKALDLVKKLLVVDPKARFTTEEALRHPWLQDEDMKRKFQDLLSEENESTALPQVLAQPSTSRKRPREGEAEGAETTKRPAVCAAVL

| Compound | inhibition [1] [%] | inhibition [2] [%] | inhibition [3] [%] | inhibition (Mus musculus [4]) | IC50 [5] [µM] | inhibition (Mus musculus [6]) |
| --- | --- | --- | --- | --- | --- | --- |
| O=C(O)c1ccc(/C=N/NC(=O)c2ccc3ccccc3c2)cc1 | 0 | 0 | 0 | – | – | – |
| NC(=O)c1sc(-c2ccsc2)cc1N | – | – | – | Active | – | – |
| COC(=O)c1ccc(/C=N/NC(=O)c2ccc3ccccc3c2)cc1 | 0 | 0 | 0 | – | – | – |
| O=C(N/N=C/c1ccc([N+](=O)[O-])cc1)c1ccc2ccccc2c1 | 0 | 1.2 | 0 | Active | 20 | Dose-dependent effect |
